These results are taken from patent publication US8735360B2 (priority 2009, dated 2014).

Structures are written as SMILES. Positions of bridges follow the written chain, without caps; N, C: chain ends. Residues, ends and D or L forms follow the SMILES beside them.

Assay [1] has as its target T1, GC-C (Homo sapiens, UniProt P25092). The format is cell-based. Conditions: for Ratio EC50 pH 8/EC50 pH 5: cGMP response in T84 cells; for pH sensitivity with regard to binding and/or activation of GC-C: pH 5 versus pH 8.
Assay [2] has as its target T1, GC-C. The format is binding.
The subject of assay [3] is female CD-1 mice. The format is in vivo. To be noted: oral gavage, % distance travelled by charcoal front in small intestine.
Assay [4] has as its system ligated duodenal loops in rats. The format is in vivo, rat. To be noted: 2.5 μg of peptide per loop.

T1 sequence (P25092 24-1073 limits assumed): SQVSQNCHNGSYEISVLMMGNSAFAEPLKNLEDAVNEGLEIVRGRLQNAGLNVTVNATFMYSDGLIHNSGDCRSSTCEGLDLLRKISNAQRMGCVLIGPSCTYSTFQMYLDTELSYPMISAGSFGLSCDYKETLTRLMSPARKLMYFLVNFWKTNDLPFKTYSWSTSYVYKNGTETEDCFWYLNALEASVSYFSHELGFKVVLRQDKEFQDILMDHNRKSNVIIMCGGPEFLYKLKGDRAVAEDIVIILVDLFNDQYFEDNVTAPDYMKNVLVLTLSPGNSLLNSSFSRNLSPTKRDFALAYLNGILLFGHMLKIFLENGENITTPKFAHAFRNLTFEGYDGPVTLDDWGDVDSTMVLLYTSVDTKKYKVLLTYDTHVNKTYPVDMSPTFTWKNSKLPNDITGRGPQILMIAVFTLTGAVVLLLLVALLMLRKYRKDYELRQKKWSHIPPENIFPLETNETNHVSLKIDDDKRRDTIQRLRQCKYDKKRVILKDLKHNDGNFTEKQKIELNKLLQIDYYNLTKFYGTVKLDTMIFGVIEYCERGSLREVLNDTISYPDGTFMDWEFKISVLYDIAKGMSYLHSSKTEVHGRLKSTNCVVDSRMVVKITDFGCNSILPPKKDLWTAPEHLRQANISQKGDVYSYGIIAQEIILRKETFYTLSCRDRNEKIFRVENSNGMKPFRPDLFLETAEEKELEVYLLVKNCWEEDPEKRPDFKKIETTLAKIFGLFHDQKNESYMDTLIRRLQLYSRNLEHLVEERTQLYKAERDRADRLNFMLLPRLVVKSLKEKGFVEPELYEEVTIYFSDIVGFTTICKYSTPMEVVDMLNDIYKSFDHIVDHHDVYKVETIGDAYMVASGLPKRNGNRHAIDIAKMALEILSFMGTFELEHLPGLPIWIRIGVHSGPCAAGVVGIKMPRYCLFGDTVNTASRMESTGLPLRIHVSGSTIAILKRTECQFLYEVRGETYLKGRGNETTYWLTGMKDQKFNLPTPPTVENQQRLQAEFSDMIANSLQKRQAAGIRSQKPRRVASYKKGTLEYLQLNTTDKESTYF

Turning to `CC(C)C[C@@H]1NC(=O)[C@H](CCC(=O)O)NC(=O)[C@@H]2CSSC[C@@H]3NC(=O)[C@H](C)NC(=O)[C@@H]4CCCN4C(=O)[C@H](CC(N)=O)NC(=O)[C@H](CSSC[C@H](NC(=O)[C@H](CC(=O)O)NC(=O)[C@H](CC(=O)O)NC(=O)CN)C(=O)N2)NC(=O)[C@H](CSSC[C@@H](C(=O)N[C@@H](Cc2ccc(O)cc2)C(=O)O)NC(=O)CNC(=O)[C@H]([C@@H](C)O)NC3=O)NC1=O` [Peptide 19, GDDCCELCCNPACTGCY] (H-GDDCCELCCNPACTGCY-OH; disulfide 4-9, 5-13, 8-16 (inferred); N-terminus and C-terminus assumed), the “Ratio EC50 pH 8/EC50 pH 5” value in assay [1] is listed as 61.5.

On to `C[C@H](N)C(=O)N[C@@H](CC(=O)O)C(=O)N[C@@H](CC(=O)O)C(=O)N[C@H]1CSSC[C@@H]2NC(=O)[C@@H]3CSSC[C@@H](C(=O)N[C@@H](Cc4ccc(O)cc4)C(=O)O)NC(=O)CNC(=O)[C@H]([C@@H](C)O)NC(=O)[C@H](CSSC[C@H](NC1=O)C(=O)N[C@@H](CCC(=O)O)C(=O)N[C@@H](Cc1ccc(O)cc1)C(=O)N3)NC(=O)[C@H](C)NC(=O)[C@@H]1CCCN1C(=O)[C@H](CC(N)=O)NC2=O` [Peptide 9, ADDCCEYCCNPACTGCY], for which the “Ratio EC50 pH 8/EC50 pH 5” value in assay [1] came to 79.8. Moreover, in assay [2], the “Ratio Ki pH 8/Ki pH 5” value amounted to 1.29.

Take `C[C@@H]1NC(=O)[C@@H]2CCCN2C(=O)[C@H](CC(N)=O)NC(=O)[C@@H]2CSSC[C@H](NC(=O)[C@H](CC(=O)O)NC(=O)[C@@H](N)CC(=O)O)C(=O)N[C@H]3CSSC[C@H](NC1=O)C(=O)N[C@@H]([C@@H](C)O)C(=O)NCC(=O)N[C@H](C(=O)N[C@@H](Cc1ccc(O)cc1)C(=O)O)CSSC[C@H](NC(=O)[C@H](Cc1ccc(O)cc1)NC(=O)[C@H](CCC(=O)O)NC3=O)C(=O)N2` [Peptide 4, DDCCEYCCNPACTGCY] (H-DDCCEYCCNPACTGCY-OH; disulfide 3-8, 4-12, 7-15 (inferred); N-terminus and C-terminus assumed): in assay [1], the “Ratio EC50 pH 8/EC50 pH 5” value worked out at 48.0. The “Ratio Ki pH 8/Ki pH 5” value in assay [2] is reported as 5.27. In assay [3], the “ED50 in the gastrointestinal transit assay” value (shortened to “ED50”) worked out at 6.3 µg/kg. Also, in assay [4], the “Rate of HCO3- accumulation” value was 80 neq/min/cm and the “Rate of fluid accumulation” value came out at 2.0 µL/min/cm.

As to `CC(C)C[C@@H]1NC(=O)[C@H](CCC(=O)O)NC(=O)[C@@H]2CSSC[C@@H]3NC(=O)[C@H](C)NC(=O)[C@@H]4CCCN4C(=O)[C@H](CC(N)=O)NC(=O)[C@H](CSSC[C@H](NC(=O)[C@H](CC(=O)O)NC(=O)[C@H](CC(=O)O)NC(=O)[C@@H](N)CC(N)=O)C(=O)N2)NC(=O)[C@H](CSSC[C@@H](C(=O)N[C@@H](Cc2ccc(O)cc2)C(=O)O)NC(=O)CNC(=O)[C@H]([C@@H](C)O)NC3=O)NC1=O` [Peptide 11, NDDCCELCCNPACTGCY], in assay [1], the “Ratio EC50 pH 8/EC50 pH 5” value came out at 2.7. For the same molecule, the “Ratio Ki pH 8/Ki pH 5” value in assay [2] is 6.43.

For the molecule `CC(C)C[C@@H]1NC(=O)[C@H](CCC(=O)O)NC(=O)[C@@H]2CSSC[C@@H]3NC(=O)[C@H](C)NC(=O)[C@@H]4CCCN4C(=O)[C@H](CC(N)=O)NC(=O)[C@H](CSSC[C@H](N)C(=O)N2)NC(=O)[C@H](CSSC[C@@H](C(=O)N[C@@H](Cc2ccc(O)cc2)C(=O)O)NC(=O)CNC(=O)[C@H]([C@@H](C)O)NC3=O)NC1=O` [Peptide 1, CCELCCNPACTGCY] (H-CCELCCNPACTGCY-OH; disulfide 1-6, 2-10, 5-13 (inferred); N-terminus and C-terminus assumed), in assay [1], the “Ratio EC50 pH 8/EC50 pH 5” value came to 8.5 and the “pH sensitivity with regard to binding and/or activation of GC-C” value is reported as “little or no pH sensitivity”. The “Ratio Ki pH 8/Ki pH 5” value in assay [2] was 0.69. Moreover, in assay [3], the “ED50” value came to 0.43 µg/kg. In assay [4], the “Rate of HCO3- accumulation” value is on record as 80 neq/min/cm and the “Rate of fluid accumulation” value was found to be 2.0 µL/min/cm.

With `C[C@@H]1NC(=O)[C@@H]2CCCN2C(=O)[C@H](CC(N)=O)NC(=O)[C@@H]2CSSC[C@H](N)C(=O)N[C@H]3CSSC[C@H](NC1=O)C(=O)N[C@@H]([C@@H](C)O)C(=O)NCC(=O)N[C@H](C(=O)N[C@@H](Cc1ccc(O)cc1)C(=O)O)CSSC[C@H](NC(=O)[C@H](Cc1ccccc1)NC(=O)[C@H](CCC(=O)O)NC3=O)C(=O)N2` [Peptide 2, CCEFCCNPACTGCY] (H-CCEFCCNPACTGCY-OH; disulfide 1-6, 2-10, 5-13), in assay [1], the “Ratio EC50 pH 8/EC50 pH 5” value is given as 13.2 and the “pH sensitivity with regard to binding and/or activation of GC-C” value is “little or no pH sensitivity”. Also, in assay [2], the “Ratio Ki pH 8/Ki pH 5” value is recorded as 0.97. For the same molecule, in assay [3], the “ED50” value amounted to 2.06 µg/kg. For the same molecule, in assay [4], the “Rate of HCO3- accumulation” value turned out to be 80 neq/min/cm and the “Rate of fluid accumulation” value worked out at 2.0 µL/min/cm.

With `C[C@@H]1NC(=O)[C@@H]2CCCN2C(=O)[C@H](CC(N)=O)NC(=O)[C@@H]2CSSC[C@H](NC(=O)[C@H](CC(=O)O)NC(=O)[C@H](CC(=O)O)NC(=O)[C@@H](N)CC(=O)O)C(=O)N[C@H]3CSSC[C@H](NC1=O)C(=O)N[C@@H]([C@@H](C)O)C(=O)NCC(=O)N[C@H](C(=O)N[C@@H](Cc1ccc(O)cc1)C(=O)O)CSSC[C@H](NC(=O)[C@H](Cc1ccc(O)cc1)NC(=O)[C@H](CCC(=O)O)NC3=O)C(=O)N2` [Peptide 5, DDDCCEYCCNPACTGCY], the “Ratio EC50 pH 8/EC50 pH 5” value in assay [1] is given as 256. Further, the “Ratio Ki pH 8/Ki pH 5” value in assay [2] was 5.52. In assay [3], the “ED50” value came to 7.54 µg/kg.

In the case of `CC(C)C[C@@H]1NC(=O)[C@H](CCC(=O)O)NC(=O)[C@@H]2CSSC[C@@H]3NC(=O)[C@H](C)NC(=O)[C@@H]4CCCN4C(=O)[C@H](CC(N)=O)NC(=O)[C@H](CSSC[C@H](NC(=O)[C@H](CC(=O)O)NC(=O)[C@H](CC(=O)O)NC(=O)[C@@H]4CCCN4)C(=O)N2)NC(=O)[C@H](CSSC[C@@H](C(=O)N[C@@H](Cc2ccc(O)cc2)C(=O)O)NC(=O)CNC(=O)[C@H]([C@@H](C)O)NC3=O)NC1=O` [Peptide 18, PDDCCELCCNPACTGCY] (H-PDDCCELCCNPACTGCY-OH; disulfide 4-9, 5-13, 8-16 (inferred); N-terminus and C-terminus assumed), the “Ratio EC50 pH 8/EC50 pH 5” value in assay [1] worked out at 205.2.

With `C[C@@H]1NC(=O)[C@@H]2CCCN2C(=O)[C@H](CC(N)=O)NC(=O)[C@@H]2CSSC[C@H](NC(=O)[C@H](CC(=O)O)NC(=O)[C@H](CC(=O)O)NC(=O)CN)C(=O)N[C@H]3CSSC[C@H](NC1=O)C(=O)N[C@@H]([C@@H](C)O)C(=O)NCC(=O)N[C@H](C(=O)N[C@@H](Cc1ccc(O)cc1)C(=O)O)CSSC[C@H](NC(=O)[C@H](Cc1ccc(O)cc1)NC(=O)[C@H](CCC(=O)O)NC3=O)C(=O)N2` [Peptide 7, GDDCCEYCCNPACTGCY] (H-GDDCCEYCCNPACTGCY-OH; disulfide 4-9, 5-13, 8-16 (inferred); N-terminus and C-terminus assumed), the “Ratio EC50 pH 8/EC50 pH 5” value in assay [1] is 383.

In the case of `CC(C)C[C@@H]1NC(=O)[C@H](CCC(=O)O)NC(=O)[C@@H]2CSSC[C@@H]3NC(=O)[C@H](C)NC(=O)[C@@H]4CCCN4C(=O)[C@H](CC(N)=O)NC(=O)[C@H](CSSC[C@H](NC(=O)[C@H](CC(=O)O)NC(=O)[C@H](CC(=O)O)NC(=O)[C@H](C)N)C(=O)N2)NC(=O)[C@H](CSSC[C@@H](C(=O)N[C@@H](Cc2ccc(O)cc2)C(=O)O)NC(=O)CNC(=O)[C@H]([C@@H](C)O)NC3=O)NC1=O` [Peptide 13, ADDCCELCCNPACTGCY], the “Ratio EC50 pH 8/EC50 pH 5” value in assay [1] is reported as 62.5.

In the case of `C[C@@H]1NC(=O)[C@@H]2CCCN2C(=O)[C@H](CC(N)=O)NC(=O)[C@@H]2CSSC[C@H](NC(=O)[C@H](CC(=O)O)NC(=O)[C@H](CC(=O)O)NC(=O)[C@@H]3CCCN3)C(=O)N[C@H]3CSSC[C@H](NC1=O)C(=O)N[C@@H]([C@@H](C)O)C(=O)NCC(=O)N[C@H](C(=O)N[C@@H](Cc1ccc(O)cc1)C(=O)O)CSSC[C@H](NC(=O)[C@H](Cc1ccc(O)cc1)NC(=O)[C@H](CCC(=O)O)NC3=O)C(=O)N2` [Peptide 8, PDDCCEYCCNPACTGCY] (H-PDDCCEYCCNPACTGCY-OH; disulfide 4-9, 5-13, 8-16), the “Ratio EC50 pH 8/EC50 pH 5” value in assay [1] is reported as 58.2.

Consider `CC(C)C[C@@H]1NC(=O)[C@H](CCC(=O)O)NC(=O)[C@@H]2CSSC[C@@H]3NC(=O)[C@H](C)NC(=O)[C@@H]4CCCN4C(=O)[C@H](CC(N)=O)NC(=O)[C@H](CSSC[C@H](NC(=O)[C@H](CC(=O)O)NC(=O)[C@@H](N)CC(=O)O)C(=O)N2)NC(=O)[C@H](CSSC[C@@H](C(=O)N[C@@H](Cc2ccc(O)cc2)C(=O)O)NC(=O)CNC(=O)[C@H]([C@@H](C)O)NC3=O)NC1=O` [Peptide 16, DDCCELCCNPACTGCY] (H-DDCCELCCNPACTGCY-OH; disulfide 3-8, 4-12, 7-15 (inferred); N-terminus and C-terminus assumed), for which the “Ratio EC50 pH 8/EC50 pH 5” value in assay [1] was 26.9.

For the molecule `C[C@@H]1NC(=O)[C@@H]2CCCN2C(=O)[C@H](CC(N)=O)NC(=O)[C@@H]2CSSC[C@H](NC(=O)[C@H](CC(=O)O)NC(=O)[C@H](CC(=O)O)NC(=O)[C@@H](N)CC(N)=O)C(=O)N[C@H]3CSSC[C@H](NC1=O)C(=O)N[C@@H]([C@@H](C)O)C(=O)NCC(=O)N[C@H](C(=O)N[C@@H](Cc1ccc(O)cc1)C(=O)O)CSSC[C@H](NC(=O)[C@H](Cc1ccc(O)cc1)NC(=O)[C@H](CCC(=O)O)NC3=O)C(=O)N2` [Peptide 3, NDDCCEYCCNPACTGCY] (H-NDDCCEYCCNPACTGCY-OH; disulfide 4-9, 5-13, 8-16 (inferred); N-terminus and C-terminus assumed), the “Ratio EC50 pH 8/EC50 pH 5” value in assay [1] was determined as 25.3. Also, the “Ratio Ki pH 8/Ki pH 5” value in assay [2] is listed as 17.5.

With `CC(C)C[C@@H]1NC(=O)[C@H](CCC(=O)O)NC(=O)[C@@H]2CSSC[C@@H]3NC(=O)[C@H](C)NC(=O)[C@@H]4CCCN4C(=O)[C@H](CC(N)=O)NC(=O)[C@H](CSSC[C@H](NC(=O)[C@H](CC(=O)O)NC(=O)[C@H](CC(=O)O)NC(=O)[C@@H](N)CC(=O)O)C(=O)N2)NC(=O)[C@H](CSSC[C@@H](C(=O)O)NC(=O)CNC(=O)[C@H]([C@@H](C)O)NC3=O)NC1=O` [Peptide 20, DDDCCELCCNPACTGC] (H-DDDCCELCCNPACTGC-OH; disulfide 4-9, 5-13, 8-16 (inferred); N-terminus and C-terminus assumed), the “Ratio EC50 pH 8/EC50 pH 5” value in assay [1] worked out at 90. In assay [2], the “Ratio Ki pH 8/Ki pH 5” value stood at 3.6.
